Assays:
plasma LPA = assay: Assay C: In Vivo (plasma LPA reduction after oral application to rats); parameters: species or system rat; settings: 5 mg/kg, plasma 8 hours post application, vs baseline, sum of LPA 16:0, 18:0, 18:1, 18:2, 20:4
Method: The test substance was solubilized in 0.5% natrosol supplemented with 0.015% Tween 80 for oral application to rats at a dose of 5 mg/kg. Blood samples were collected before compound administration and 8 hours post application on ice using EDTA as coagulation agent. Subsequently, plasma was prepared by centrifugation and stored until analysis at −20° C.
LPAs from plasma samples were extracted by using the procedure described by Scherer et al. (Clinical chemistry 2009, 55, 1218-22). 35 μL of heparinized plasma was mixed with 200 μL 40 mM disodium hydrogen phosphate buffer containing 30 mM citric acid (pH 4) and 1 μM 17:0 LPA (internal standard). Subsequently, 500 μL butanol was added and shaken vigorously for 10 min. Samples were centrifuged afterwards at 4000 rpm, 4° C., for 10 min. 500 μL of the organic upper phase was transferred to a fresh 96-deep-well plate and evaporated with a gentle nitrogen flow of 15 psi for 45 min. The resultant residual was dissolved in 100 μL ethanol prior to LC-MS analysis.
LC-MS Method for the Analytic of In Vivo Samples
A Triple Quad 6500 (ABSciex, Toronto, Canada) was equipped with an Agilent 1290 LC system (Agilent, Santa Clara, Calif.) a CTC autosampler and an Atlantis 50×2.1-mm, 3-μm HILIC LC column (Waters, Elstree, UK). Eluent A contained 0.2% formic acid and 50 mM ammonium formate in water, whereas eluent B consisted of 0.2% formic acid in acetonitrile. […] At 1.8 min, solvent B was set back to 95% and stayed constant for 0.7 min for re-equilibration of the column. The following LPA species were monitored (DP: declustering potential and CE: collision energy): 16:0 LPA at 409.2/152.8, DP=−150, CE=−28; 18:0 LPA at 437.3/152.8, DP=−60, CE=−28; 18:1 LPA at 435.2/152.8, DP=−40, CE=−28; 18:2 LPA at 433.2/152.8, DP=−150, CE=−28; 20:4 LPA at 457.2/152.8, DP=−100, CE=−29 and 17:0 LPA at 423.5/152.8, DP=−100, CE=−36. LPA depletion in percent was calculated based on the baseline LPA levels before test compound application. The sum of LPA refers to the species 16:0; 18:0; 18:1; 18:2 and 20:4

Human ATX = Human ATX (Homo sapiens (Human), UniProt Q13822); assay: Assay A: Biochemical ATX Assay; settings: 5 nM recombinant ATX, 18:1 LPC substrate, 2-h incubation at room temperature, formation of 18:1 LPA
Method: 5 nM recombinant ATX (Cayman Chemicals) was supplemented to 50 mM Tris buffer (pH 8.0) containing 3 mM KCl, 1 mM CaCl2, 1 mM MgCl2 0.14 mM NaCl, and 0.1% bovine serum albumin. Test compounds were dissolved in DMSO and tested in the range of 0.1 nM to 10 μM. The enzymatic reaction (22.5 μL) was started by addition of 2.5 μL 10 μM 18:1 LPC (Avanti Lipids, Alabaster, Ala., USA). After 2-h incubation at room temperature, the reaction was stopped by addition of 20 μL water containing 500 nM 20:4 LPA as internal standard and 100 μL 1-butanol for extracting LPA. Subsequently, the plates were centrifuged at 4000 rpm, 4° C., for 2 min. The resultant upper butanol phase was directly used for injection at a RapidFire system (Agilent).
The RapidFire autosampler was coupled to a binary pump (Agilent 1290) and a Triple Quad 6500 (ABSciex, Toronto, Canada). This system was equipped with a 10-μL loop, 5-μL Waters Atlantis HILIC cartridge (Waters, Elstree, UK), 90% acetonitrile containing 10 mM ammonium acetate as eluent A and 40% acetonitrile containing 10 mM ammoniumacetate as eluent B. For details see (Bretschneider et al., SLAS Discovery, 2017). 1 The MS was operated in negative mode with a source temperature of 550° C., curtain gas=35, gas 1=65, and gas 2=80. The following transitions and MS parameters (DP: declustering potential and CE: collision energy) for the respective LPAs were determined: 18:1 LPA at 435.2/152.8, DP=−40, CE=−28 and 20:4 LPA at 457.2/152.8, DP=−100, CE=−27).
The formation of 18:1 LPA was monitored and evaluated as ratio to 20:4 LPA.

ATX in human whole blood = ATX in human whole blood (Homo sapiens (Human), UniProt Q13822); assay: Assay B: Whole-Blood ATX Assay; format: biochemical; settings: 1 h at 37° C., formation of 18:2 LPA
Method: 45 μL human whole-blood was supplemented with 5 μL of the test compound, dissolved in phosphate-buffered saline (concentration range 0.12 nM-100 μM). This mixture was incubated for 1 h at 37° C. and stopped by addition of 100 μL 40 mM disodium hydrogen phosphate buffer containing 30 mM citric acid (pH 4) and 1 μM 17:0 LPA (internal standard). LPA was extracted by addition of 500 μL 1-butanol, followed by 10-min centrifugation at 4000 rpm, 4° C. Prom the resultant organic supernatant, a 200 μL aliquot was transferred into a 96-deep-well plate and transferred to the RapidPire-based MS/MS measurement.
The RapidPire autosampler was coupled to a binary pump (Agilent 1290) and a Triple Quad 6500 (ABSciex, Toronto, Canada). This system was equipped with a 10-μL loop, 5-μL Waters Atlantis HILIC cartridge (Waters, Elstree, UK), 90% acetonitrile containing 10 mM ammonium acetate as eluent A and 40% acetonitrile containing 10 mM ammoniumacetate as eluent B. For details see (Bretschneider et al., SLAS Discovery, 2017, 22, 425-432). The MS was operated in negative mode with a source temperature of 550° C., curtain gas=35, gas 1=65, and gas 2=80. The following transitions and MS parameters (DP: declustering potential and CE: collision energy) for the respective LPAs were determined: 18:2 LPA at 433.2/152.8, DP=−150, CE=−27 and 17:0 LPA at 423.5/152.8, DP=−100.
The formation of 18:2 LPA was monitored and evaluated as ratio to 17:0 LPA.

IC50 (Human ATX)	IC50 (ATX in human whole blood)	SMILES	LPA reduction at 8 h (plasma LPA)
4 nM	3.1 nM	CC(=O)N1CCC2(CC1)CN(c1ccc(CNC(=O)C3(c4ccc(OCc5ccc(C(F)(F)F)nc5)nn4)CC3)cc1)C2 [Example 1.1, N-(4-(7-acetyl-2,7-diazaspiro[3.5]nonan-2-yl)benzyl)-1-(6-((6-(trifluoromethyl)pyridin-3-yl)methoxy)pyridazin-3-yl)cyclopropane-1-carboxamide]	93.7%
3.5 nM	2.4 nM	CN1CC2(CC1=O)CN(c1ccc(CNC(=O)C3(c4ccc(OCc5ccc(C(F)F)nc5)nn4)CC3)cc1)C2 [Example 1.2]	90.6%
3.7 nM	2.8 nM	CC(=O)N1CCC2(CC1)CN(c1ccc(CNC(=O)C3(c4ccc(OCc5ccc(C(F)F)nc5)nn4)CC3)cc1)C2 [Example 1.3]	95.0%
4 nM	3.1 nM	CC(=O)N1CC2(C1)CN(c1ccc(CNC(=O)C3(c4ccc(OCc5ccc(C(F)F)nc5)nn4)CC3)cc1)C2 [Example 1.4]	98.2%
3.8 nM	4.2 nM	CC(=O)N1CCN(c2ccc(CNC(=O)C3(c4ccc(OCc5ccc(C(F)(F)F)nc5)nn4)CC3)c(F)c2)CC1 [Example 1.5]	–
2.4 nM	4.7 nM	CC(=O)N1CCN(c2ccc(CNC(=O)C3(c4ccc(OCc5ccc(C(F)(F)F)nc5)nn4)CC3)cc2F)CC1 [Example 1.6]	–
8.9 nM	5.7 nM	CN1CC2(CC1=O)CN(c1ccc(CNC(=O)C3(c4ccc(OCc5ccc(C(F)(F)F)nc5)nn4)CC3)cc1)C2 [Example 1.7]	–
4.1 nM	7.3 nM	CC(=O)N1CC2(CCN(c3ccc(CNC(=O)C4(c5ccc(OCc6ccc(C(F)F)nc6)nn5)CC4)cc3)C2)C1 [Example 1.8]	78.2%
4.5 nM	9.4 nM	CN1C(=O)NCC12CCN(c1ccc(CNC(=O)C3(c4ccc(OCc5ccc(C(F)F)nc5)nn4)CC3)cc1)CC2 [Example 1.9]	–
2.4 nM	7 nM	O=C1CCCN1C1CCN(c2ccc(CNC(=O)C3(c4ccc(OCc5ccc(C(F)(F)F)nc5)nn4)CC3)cc2)CC1 [Example 1.10]	–
2.6 nM	10 nM	CC(=O)N1CCC12CN(c1ccc(CNC(=O)C3(c4ccc(OCc5ccc(C(F)(F)F)nc5)nn4)CC3)cc1)C2 [Example 1.11]	–
4.3 nM	10.2 nM	CC(=O)N1CCN(c2ccc(CNC(=O)C3(c4ccc(OCc5ccc(C(F)(F)F)nc5)nn4)CC3)cc2)CC1 [Example 1.12]	83.9%
2.8 nM	10.5 nM	CN1C(=O)NCC12CCN(c1ccc(CNC(=O)C3(c4ccc(OCc5ccc(C(F)(F)F)nc5)nn4)CC3)cc1)CC2 [Example 1.13]	–
4.9 nM	11.1 nM	CC(=O)N1CCC2(C1)CN(c1ccc(CNC(=O)C3(c4ccc(OCc5ccc(C(F)(F)F)nc5)nn4)CC3)cc1)C2 [Example 1.14]	–
2 nM	11.8 nM	CC(=O)N1CCN(c2ccc(CNC(=O)C3(c4ccc(OCc5ccc(C(F)(F)F)nc5)nn4)CC3)cc2C(F)(F)F)CC1 [Example 1.15]	–
3.4 nM	5.4 nM	CC(=O)N1CCN(c2ccc(CNC(=O)C3(c4ccc(OCc5ccc(C(F)F)nc5)nn4)CC3)cc2)CC1 [Example 1.16]	95.5%

IC50 (Human ATX)	IC50 (ATX in human whole blood)	SMILES	LPA reduction at 8 h (plasma LPA)
2.2 nM	6.5 nM	CC(=O)N1CC2(C1)CN(c1ccc(CNC(=O)C3(c4ccc(OCc5ccc(C(F)(F)F)nc5)nn4)CC3)cc1)C2 [Example 1.17]	96.9%
3.2 nM	10.8 nM	CC(=O)N1CC2CC1CN2c1ccc(CNC(=O)C2(c3ccc(OCc4ccc(C(F)(F)F)nc4)nn3)CC2)cc1 (centres unmarked) [Example 1.18]	–
2.2 nM	8.3 nM	CC(=O)N1CCN(c2ccc(CNC(=O)C3(c4ccc(OCc5ccc(C(F)(F)F)nc5)nn4)CC3)cc2)CC1(C)C [Example 1.19]	–
4 nM	6.7 nM	CC(=O)N1CCN(c2ccc(CNC(=O)C3(c4ccc(OCc5ccc(C(F)(F)F)nc5)nn4)CC3)cc2)C(C)(C)C1 [Example 1.20]	–
4.4 nM	2.9 nM	CC(=O)N1CC2(C1)CN(c1ccc(CNC(=O)C3(c4ccc(OCc5ccc(C(F)(F)F)nc5)nn4)CC3)cc1F)C2 [Example 1.21]	93.8%
2.5 nM	2.5 nM	CC(=O)N1CCN(c2ccc(CNC(=O)C3(c4ccc(OCc5ccc(C(F)F)nc5)nn4)CC3)c(C(F)(F)F)c2)CC1 [Example 1.22]	–
3.6 nM	4.9 nM	CC(=O)N1CCN(c2ccc(CNC(=O)C3(c4ccc(OCc5ccc(C(F)(F)F)nc5)nn4)CC3)c(C(F)(F)F)c2)CC1 [Example 1.23]	–
3.8 nM	4.6 nM	CC(=O)N1C[C@@H]2CN(c3ccc(CNC(=O)C4(c5ccc(OCc6ccc(C(F)F)nc6)nn5)CC4)cc3)C[C@@H]2C1 [Example 1.24]	–
3.2 nM	12.4 nM	CC(=O)N1C[C@@H]2CN(c3ccc(CNC(=O)C4(c5ccc(OCc6ccc(C(F)(F)F)nc6)nn5)CC4)cc3)C[C@@H]2C1 [Example 1.25]	–
4.1 nM	3.9 nM	CC(=O)N1CC2(C1)CN(c1ccc(CNC(=O)C3(c4ccc(OCc5ccc(C(F)F)nc5)nn4)CC3)cc1F)C2 [Example 1.26]	–
–	12.1 nM	CC(=O)N1CCN(c2ccc(CNC(=O)C3(c4ccc(OCc5ccc(C(F)F)nc5)nn4)CC3)cn2)CC1 [Example 1.27]	–
3.2 nM	6.4 nM	CC(=O)N1CCC2(CC1)CN(c1ccc(CNC(=O)C3(c4ccc(OCc5ccc(C(F)(F)F)nc5)nn4)CC3)nc1)C2 [Example 1.28]	–
5.2 nM	5.1 nM	CC(=O)N1CCC2(CC1)CN(c1ccc(CNC(=O)C3(c4ccc(OCc5ccc(C(F)F)nc5)nn4)CC3)nc1)C2 [Example 1.29]	–
3.4 nM	15.5 nM	CC(=O)N1CCC2(CC1)CN(c1ccc(CNC(=O)C3(c4ccc(OCc5ccc(C(F)(F)F)nc5)nn4)CC3)cn1)C2 [Example 1.30]	–
3.4 nM	10.7 nM	CC(=O)N1CCC(c2ccc(CNC(=O)C3(c4ccc(OCc5ccc(C(F)(F)F)nc5)nn4)CC3)cc2)CC1 [Example 1.31]	–
–	–	CCc1nc2c(C)cc(N3CCN(CC(=O)N4CC(O)C4)CC3)cn2c1N(C)c1nc(-c2ccc(F)cc2)c(C#N)s1 [Example 2 in WO2014/139882, reference compound]	58.1%

Source: patent US11465982B2, “Pyridazines” (Boehringer Ingelheim International GmbH, priority 2019, dated 2022)
